Experimental data reported in ChEMBL document CHEMBL5614443, “Hybrids of 3-Hydroxypyridin-4(1H)-ones and Long-Chain 4-Aminoquinolines as Potent Biofilm Inhibitors of Pseudomonas aeruginosa Potentiate Tobramycin and Polymyxin B Activity” (J Med Chem, 2024).
Activity calls are given as the source filed them. No cut-off for these calls is given here.

Experiments:
[1] = test system: Pseudomonas aeruginosa; experiment: Antibacterial activity against Pseudomonas aeruginosa PAO1 infected in Caenorhabditis elegans assessed as reduction in worm mortality by measuring survival at 1/2 MIC by bright-field microscopic analysis (reference value: 24 hrs); type: functional
[2] = test system: Pseudomonas aeruginosa; experiment: Antibacterial activity against Pseudomonas aeruginosa PAO1 assessed as bacterial survival rate at 1/2 MIC incubated for 24 hrs by LB agar plate method relative to control; type: functional
[3] = test system: Pseudomonas aeruginosa; experiment: Antibiofilm activity against Pseudomonas aeruginosa PAO1 assessed as inhibition of biofilm formation incubated for 24 hrs by crystal violet staining based analysis; type: functional, organism-based; details: PAO1, 24 h
[4] = test system: Pseudomonas aeruginosa; experiment: Antibacterial activity against Pseudomonas aeruginosa PAO1 assessed as inhibition of bacterial growth incubated for 24 hrs by CLSI protocol based method; type: functional
[5] = Inhibition of quorum sensing system in wildtype Pseudomonas aeruginosa PAO1 assessed as inhibition of rhamnolipid production incubated for 24 hrs by absorbance based microtiter plate reader analysis
[6] = test system: Pseudomonas aeruginosa; experiment: Antibiofilm activity against Pseudomonas aeruginosa PAO1 assessed as decrease in biofilm formation incubated for 24 hrs by LIVE/DEAD BacLight staining based 3D confocal laser scanning microscopy; type: functional, organism-based; details: dose 1-10 µM
[7] = test system: Pseudomonas aeruginosa; experiment: Antibacterial activity against Pseudomonas aeruginosa PAO1 assessed as inhibition of bacterial growth at 0.1 to 50 uM measured upto 24 hrs by CLSI protocol based method; type: functional, organism-based; details: dose 0.1-50 µM
[8] = Inhibition of quorum sensing system in wildtype Pseudomonas aeruginosa PAO1 assessed as inhibition of pyocyanin production incubated for 24 hrs by absorbance based analysis
[9] = Inhibition of quorum sensing system in wildtype Pseudomonas aeruginosa PAO1 assessed as inhibition of elastase production incubated for 24 hrs by elastin-congo red dye based absorbance assay
[10] = test system: Pseudomonas aeruginosa; experiment: Induction of Fe3+ chelating activity in Pseudomonas aeruginosa PAO1 assessed as increase in pyoverdine production at 2.5 to 50 uM incubated for 24 hrs by fluorescence microplate reader; details: dose 2.5-50 µM
[11] = Hemolytic activity in rabbit erythrocytes assessed as hemolysis rate at 200 uM incubated for 2 hrs by microplate reader analysis (reference value: 100 %); type: toxicity, cell-based, Oryctolagus cuniculus, Erythrocyte; details: read-out: Activity
[12] = test system: Pseudomonas aeruginosa; experiment: Induction of Fe3+ chelating activity in Pseudomonas aeruginosa PAO1 assessed as increase in pyochelin production at 2.5 to 50 uM incubated for 24 hrs by fluorescence microplate reader; details: dose 2.5-50 µM
[13] = Toxicity in Caenorhabditis elegans assessed as effect on survival at 100 uM measured at 48 hrs by bright-field microscopic analysis
[14] = Cytotoxicity against African green monkey Vero cells assessed as reduction in cell viability incubated for 24 hrs by MTT assay; type: toxicity, cell-based; details: chlorocebus sabaeus
[15] = Metal chelating activity assessed as Fe3+ chelation by measuring iron chelation constant by fluorescence competition assay

| Compound | IC50 [3] [µM] | MIC [4] [µM] | other results |
| --- | --- | --- | --- |
| POLYMYXIN B | – | – | Survival [1]: 88 h; Survival [2]: 18% |
| O=c1cc(CNCCCCCCCCNc2ccnc3cc(Cl)ccc23)n(O)cc1O | > 50 | ≥ 512 | – |
| CCCCCn1c(C)cc(=O)c(O)c1CNCCCCCCCCNc1ccnc2ccccc12 | 23.6 | ≥ 512 | – |
| Cn1cc(O)c(=O)cc1CNCCCCCCCCNc1ccnc2ccccc12 | > 50 | ≥ 512 | – |
| Cc1cc(=O)c(O)c(C(=O)NCCCCCCCCNc2ccnc3ccccc23)n1C | 13 | ≥ 512 | – |
| NC[C@H]1O[C@H](O[C@H]2[C@H](O)[C@@H](O[C@H]3O[C@H](CO)[C@@H](O)[C@H](N)[C@H]3O)[C@H](N)C[C@@H]2N)[C@H](N)C[C@@H]1O [TOBRAMYCIN] | – | – | Survival [1]: 72 h; Survival [2]: ~20% |
| Cc1cc(=O)c(O)c(CNCCCCCCCCNc2ccnc3c(Cl)cccc23)n1C | > 50 | ≥ 512 | – |
| Cc1cc(=O)c(O)c(CNCCCCCCCCNc2ccnc3cc(Cl)ccc23)n1C | 5.4 | ≥ 512 | IC50 [5]: > 50 µM; Activity [6]: Dose-Dependent Effect; Activity [7]: inactive; IC50 [8]: 23.7 µM; IC50 [9]: 30.9 µM |
| Cc1cc(=O)c(O)c(CNCCCCCCCCNc2ccnc(Cl)c2)n1C | > 50 | ≥ 512 | – |
| Cc1cc(=O)c(O)c(CNCCCCCCCCNc2ccnc3ccccc23)n1C | 8.1 | ≥ 512 | – |
| Cc1cc(=O)c(O)c(CNCCNc2ccnc3ccccc23)n1C | > 50 | ≥ 512 | – |
| COCCn1c(C)cc(=O)c(O)c1CNCCCCCCCCNc1ccnc2ccccc12 | > 50 | ≥ 512 | – |
| Cc1cc(=O)c(O)c(CNCCCCCCNc2ccnc3cc(Cl)ccc23)n1C | 18.2 | ≥ 512 | – |
| COc1ccc2c(NCCCCCCCCNC(=O)c3c(O)c(=O)cc(C)n3C)ccnc2c1 | > 50 | ≥ 512 | – |
| Cc1cc(=O)c(O)c(CNCCCNc2ccnc3ccccc23)n1C | > 50 | ≥ 512 | – |
| O=c1cc(CNCCCCCCCCNc2ccnc3ccccc23)n(O)cc1O | > 50 | ≥ 512 | – |
| CCCCn1c(C)cc(=O)c(O)c1CNCCCCCCCCNc1ccnc2ccccc12 | 8.9 | ≥ 512 | – |
| Cc1cc(=O)c(O)c(CNCCCCCCCCNc2ccnc3cccc(Cl)c23)n1C | > 50 | ≥ 512 | – |
| CCn1c(C)cc(=O)c(O)c1CNCCCCCCCCNc1ccnc2ccccc12 | > 50 | ≥ 512 | – |
| Cc1cc(=O)c(O)c(CNCCCCCCCCNc2ccnc3cc(F)ccc23)n1C | > 50 | ≥ 512 | – |
| CCCCCCCc1[nH]c2ccccc2c(=O)c1O | – | – | Activity [10]: Active |
| CCCn1c(C)cc(=O)c(O)c1CNCCCCCCCCNc1ccnc2ccccc12 | > 50 | ≥ 512 | – |
| NCCCCCCCCNc1ccnc2cc(Cl)ccc12 | > 50 | ≥ 512 | hemolysis at 2 h, 200 µM [11]: < 1.5%; Activity [12]: Active; Activity [13]: Toxic; IC50 [5]: > 50 µM; Activity [10]: Active; IC50 [8]: > 50 µM; CC50 at 24 h [14]: 189 µM; IC50 [9]: 43.5 µM |

| Compound | IC50 [3] [µM] | MIC [4] [µM] | other results |
| --- | --- | --- | --- |
| Cc1cc(=O)c(O)c(CNCCCCCCCCNc2ccnc3ccc(Cl)cc23)n1C | 18.3 | ≥ 512 | – |
| COc1ccc2c(NCCCCCCCCNCc3cc(=O)c(O)cn3C)ccnc2c1 | > 50 | ≥ 512 | – |
| Cc1cc(=O)c(OCc2ccccc2)c(C(=O)NCCCCCCCCNc2ccnc3cc(Cl)ccc23)n1C | > 50 | ≥ 512 | Activity [12]: Active; Activity [10]: Active |
| Cc1cc(=O)c(O)c(CNCCCCCCCNc2ccnc3ccccc23)n1C | 13.2 | ≥ 512 | – |
| Cc1cc(=O)c(O)c(CNCCCCCCCCNc2ccnc3cc(C(F)(F)F)ccc23)n1C | 12.9 | ≥ 512 | – |
| Cc1cc(=O)c(O)c(CNCCCCCCNc2ccnc3ccccc23)n1C | 16.2 | ≥ 512 | – |
| Cc1cc(=O)c(O)c(CNCCCCCCCCNc2ccnc3cc(Br)ccc23)n1C | > 50 | ≥ 512 | – |
| CCCCn1c(C)cc(=O)c(O)c1CNCCCCCCCCNc1ccnc2cc(Cl)ccc12 | 14.1 | ≥ 512 | – |
| Cc1cc(=O)c(OCc2ccccc2)c(CNCCCCCCCCNc2ccnc3cc(Cl)ccc23)[nH]1 | > 50 | ≥ 512 | – |
| Cc1cc(=O)c(O)c(CNCCCCCCCNc2ccnc3cc(Cl)ccc23)n1C | 9.4 | ≥ 512 | – |
| COc1ccc2c(NCCCCCCCCNCc3c(O)c(=O)cc(C)n3C)ccnc2c1 | 16 | ≥ 512 | – |
| Cc1cc(=O)c(O)c(CNCCCCCNc2ccnc3ccccc23)n1C | > 50 | ≥ 512 | – |
| CC[C@H]1OC(=O)[C@H](C)[C@@H](O[C@H]2C[C@@](C)(OC)[C@@H](O)[C@H](C)O2)[C@H](C)[C@@H](O[C@@H]2O[C@H](C)C[C@H](N(C)C)[C@H]2O)[C@](C)(O)C[C@@H](C)CN(C)[C@H](C)[C@@H](O)[C@]1(C)O [AZITHROMYCIN] | 6.6 | – | – |
| Cc1cc(=O)c(O)c(CNCCCCCCCCCCNc2ccnc3ccccc23)n1C | 32.6 | ≥ 512 | – |
| Cc1cc(=O)c(O)c(CNCCCCNc2ccnc3ccccc23)n1C | > 50 | ≥ 512 | – |
| Cc1cc(=O)c(O)cn1CCCCCCCCNc1ccnc2ccccc12 | > 50 | ≥ 512 | – |
| Cc1cc(=O)c(O)cn1CCCCCCCCNc1ccnc2cc(Cl)ccc12 | 25.6 | ≥ 512 | – |
| Cn1cc(O)c(=O)cc1CNCCCCCCCCNc1ccnc2cc(Cl)ccc12 | > 50 | ≥ 512 | – |
| Cc1cc(=O)c(O)c(CNCCCCCCCCCCNc2ccnc3cc(Cl)ccc23)n1C | > 50 | ≥ 512 | – |
| CCCCCn1c(C)cc(=O)c(O)c1CNCCCCCCCCNc1ccnc2cc(Cl)ccc12 | > 50 | ≥ 512 | – |
| Cc1cc(=O)c(O)c(CNCCCCCCCCNc2ccncc2)n1C | > 50 | ≥ 512 | – |
| Cc1c(O)c(=O)ccn1C | – | – | pFe3+ [15]: 21.7 |
